Data: the supplement of paper PMC8967900

Experiments:
Assay in all cases: selective drug sensitivity score (sDSS, relative to normal bone marrow) (sDSS (score)); higher = more potent and effective on the cell line relative to normal bone marrow cells
Details in all cases: 72 h
380 = system: 380
697 = system: 697
CCRF-CEM = system: CCRF-CEM
CCRF-HSB2 = system: CCRF-HSB2
COG-LL-332h = system: COG-LL-332h
COG-LL-394h = system: COG-LL-394h
COG-LL-402h = system: COG-LL-402h
HAL-01 = system: HAL-01
KASUMI-10 = system: KASUMI-10
KASUMI-2 = system: KASUMI-2
KASUMI-9 = system: KASUMI-9
KOPN-8 = system: KOPN-8
MHH-CALL-2 = system: MHH-CALL-2
MHH-CALL-3 = system: MHH-CALL-3
MHH-CALL-4 = system: MHH-CALL-4
MN-60 = system: MN-60
NALL-1 = system: NALL-1
NALM-16 = system: NALM-16
P30-OHKUBO = system: P30-OHKUBO
PF-382 = system: PF-382
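Further: ALL cell lines in 384-well plates, five doses spanning 10,000-fold, each plate scaled between vehicle and 100 µmol/L benzalkonium chloride controls, sDSS an adapted area-under-curve metric.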

SMILES | selective drug sensitivity score 380 | selective drug sensitivity score 697 | selective drug sensitivity score (CCRF-CEM) | selective drug sensitivity score (CCRF-HSB2) | selective drug sensitivity score (COG-LL-332h) | selective drug sensitivity score (COG-LL-394h) | selective drug sensitivity score (COG-LL-402h) | selective drug sensitivity score (HAL-01) | selective drug sensitivity score (KASUMI-10) | selective drug sensitivity score (KASUMI-2) | selective drug sensitivity score (KASUMI-9) | selective drug sensitivity score (KOPN-8) | selective drug sensitivity score (MHH-CALL-2) | selective drug sensitivity score (MHH-CALL-3) | selective drug sensitivity score (MHH-CALL-4) | selective drug sensitivity score (MN-60) | selective drug sensitivity score (NALL-1) | selective drug sensitivity score (NALM-16) | selective drug sensitivity score (P30-OHKUBO) | selective drug sensitivity score (PF-382)
O=C(c1ccc(OCCN2CCCCC2)cc1)c1c(-c2ccc(O)cc2)sc2cc(O)ccc12 [Raloxifene] (top concentration 10000 nM) | -2.28 | -0.28 | 1.42 | 2.42 | 0.92 | 0.42 | -1.68 | 1.82 | -2.28 | -2.28 | -0.68 | 0.52 | 0.22 | -2.28 | -2.28 | 1.92 | -2.28 | -2.28 | 1.82 | -0.58
CN(C)C(=O)c1cc2cnc(Nc3ccc(N4CCNCC4)cn3)nc2n1C1CCCC1 [Ribociclib] (top concentration 10000 nM) | -2.02 | 8.18 | 3.08 | 1.48 | 1.58 | -2.02 | 4.58 | 0.38 | 0.08 | -0.92 | 6.38 | 1.68 | 3.68 | 3.18 | -1.42 | -1.62 | -1.62 | 1.48 | 6.58 | 2.88
CN1CCN(CCOc2cc(OC3CCOCC3)c3c(Nc4c(Cl)ccc5c4OCO5)ncnc3c2)CC1 [Saracatinib] (top concentration 10000 nM) | -2.02 | 4.28 | -1.52 | 28.9 | 7.38 | -2.02 | 8.68 | -1.32 | 1.48 | 1.78 | 2.98 | 2.38 | -0.52 | 0.08 | -2.02 | 3.38 | -2.02 | -2.02 | 5.58 | 8.18
C=CC(=O)Nc1cccc(Nc2nc(Nc3ccc(OCCOC)cc3)ncc2F)c1 [Spebrutinib] (top concentration 1000 nM) | -0.16 | 1.94 | 1.64 | 0.04 | -0.16 | -0.16 | 0.84 | 8.34 | 3.64 | -0.16 | 4.84 | -0.16 | 5.84 | 2.34 | 3.24 | -0.16 | 6.34 | -0.16 | 4.64 | -0.16
C[C@@H]1CN(Cc2ccc(F)cc2)[C@@H](C)CN1C(=O)c1cc2c(C(=O)C(=O)N(C)C)cn(C)c2cc1Cl [Talmapimod] (top concentration 10000 nM) | 0 | 1 | 0 | 0 | 0 | 0.7 | 0 | 0 | 0 | 0 | 0 | 0 | 0 | 0 | 0 | 0 | 0 | 0 | 0.2 | 0
C[C@@H](C(=O)O)c1ccc(-c2ccccc2)c(F)c1 [Tarenflurbil] (top concentration 10000 nM) | -0.16 | -0.16 | -0.16 | -0.16 | 4.14 | -0.16 | -0.16 | 4.74 | -0.16 | -0.16 | 6.84 | -0.16 | -0.16 | -0.16 | -0.16 | -0.16 | 4.34 | 0.04 | -0.16 | -0.16
CNC(=O)c1cc(COc2nnc(Nc3ccc(Cl)cc3)c3ccoc23)ccn1 [Telatinib] (top concentration 10000 nM) | 0 | 1.6 | 0 | 0 | 0 | 0 | 0 | 1.8 | 0 | 0 | 1 | 0.9 | 0.4 | 0 | 0 | 0 | 0 | 0 | 2.9 | 0
O=c1sn(-c2cccc3ccccc23)c(=O)n1Cc1ccccc1 [Tideglusib] (top concentration 3000 nM) | -0.3 | -0.3 | -0.3 | -0.3 | -0.3 | -0.3 | -0.3 | -0.3 | 0.3 | -0.3 | -0.3 | -0.3 | 0.5 | -0.3 | 0.9 | -0.3 | -0.3 | -0.3 | -0.3 | -0.3
COc1cc2nccc(Oc3ccc(NC(=O)Nc4cc(C)on4)c(Cl)c3)c2cc1OC [Tivozanib] (top concentration 10000 nM) | -3.64 | 5.16 | 1.26 | 17.9 | 12.2 | 1.46 | 3.96 | -0.74 | 2.96 | 4.96 | 2.46 | 9.06 | -0.34 | -3.64 | -2.44 | 0.66 | -1.74 | -3.44 | 4.56 | 1.36
Cc1cc(Nc2cc(N3CCN(C)CC3)nc(Sc3ccc(NC(=O)C4CC4)cc3)n2)n[nH]1 [Tozasertib] (top concentration 10000 nM) | 19.2 | 23.2 | 21.6 | 21.9 | 19.9 | 3.36 | 15.4 | 8.36 | 15.6 | 12.3 | 18.4 | 19.1 | 11 | 9.66 | 4.66 | -0.74 | 19.8 | -0.34 | 22.2 | 7.06
CC1=C(/C=C/C(C)=C/C=C/C(C)=C/C(=O)O)C(C)(C)CCC1 [Tretinoin] (top concentration 10000 nM) | 1.7 | -1.1 | -2.3 | -2.4 | -2.4 | -2.4 | -2.4 | 1.2 | -1.8 | -2.4 | 3.4 | 0.4 | -1.7 | -1.2 | -2.4 | -2.4 | -2.4 | -2.4 | -2.4 | -2.4
COC(=O)c1ccc2c(c1)[nH]c1ncnc(NCCCN3CCCCC3)c12 [UM729] (top concentration 10000 nM) | 5.74 | 1.64 | 3.84 | 2.84 | 1.94 | 4.34 | 6.34 | -0.06 | 2.74 | -0.06 | 2.44 | 2.84 | -0.06 | 0.54 | 0.44 | 1.04 | -0.06 | 0.44 | 1.44 | 1.24
COc1cc2c(NC3CCN(C(C)C)CC3)nc(N3CCC(F)(F)CC3)nc2cc1OCCCN1CCCC1 [UNC0642] (top concentration 10000 nM) | 0.86 | 0.76 | -0.54 | -0.54 | 1.46 | 2.76 | 2.66 | -3.54 | -1.64 | -0.84 | 0.76 | -0.74 | 0.96 | -1.64 | 1.46 | -3.74 | -0.74 | -3.74 | 2.06 | -2.14
O=C(c1ccc(C(=O)N2CCC(N3CCCC3)CC2)c(Nc2ccccc2)c1)N1CCC(N2CCCC2)CC1 [UNC1215] (top concentration 10000 nM) | 0 | 0 | 0 | 0 | 0 | 0 | 0 | 0 | 0 | 0 | 0 | 0 | 0 | 0 | 0 | 0 | 0 | 0 | 0 | 0
CCCC(CCC)C(=O)O [Valproic_acid] (top concentration 1000000 nM) | 0 | 0 | 0 | 0 | 0 | 0 | 0 | 0 | 0 | 0 | 0 | 0 | 0 | 0 | 0 | 0 | 0 | 0 | 0 | 0
Clc1ccc(Nc2nnc(Cc3ccncc3)c3ccccc23)cc1 [Vatalanib] (top concentration 10000 nM) | 0 | 0 | 0 | 1.1 | 0.7 | 0 | 0 | 0 | 0 | 0 | 0 | 0 | 0.1 | 0 | 0.1 | 0.1 | 0 | 0 | 0 | 0
CCCS(=O)(=O)Nc1ccc(F)c(C(=O)c2c[nH]c3ncc(-c4ccc(Cl)cc4)cc23)c1F [Vemurafenib] (top concentration 10000 nM) | -1.14 | 5.16 | 3.46 | 4.06 | 2.96 | -1.14 | -1.14 | 0.16 | -0.84 | -1.14 | 1.66 | 6.56 | 3.56 | -1.14 | -0.94 | -1.14 | -0.34 | -1.14 | 3.86 | 3.56
CC[C@]1(O)C[C@H]2CN(CCc3c([nH]c4ccccc34)[C@@](C(=O)OC)(c3cc4c(cc3OC)N(C)[C@H]3[C@@](O)(C(=O)OC)[C@H](OC(C)=O)[C@]5(CC)C=CCN6CC[C@]43[C@@H]65)C2)C1 [Vinblastine] (top concentration 1000 nM) | 7 | 12.5 | -1.5 | -3.4 | -4.2 | -0.1 | 4.6 | -5.1 | -1 | 6.7 | 14.9 | 12.8 | -3.2 | -0.1 | -5.6 | -2.4 | -3.8 | 5.4 | 9.8 | -5.3
